Measured values reported in PMC6017873 (Molecules : A Journal of Synthetic Chemistry and Natural …, 2018).
Values joined by “and” are separate entries in the source; they are usually repeats but may differ in a detail not shown here. Equal entries are not always repeated.

Legend:
SIRT1 = target: T1, SIRT1 (Homo sapiens, UniProt Q96EB6); assay: In vitro SIRT1 activity assay; conditions: IC50 SIRT1, mean ± SD of three independent experiments
T1 sequence (Q96EB6 1-747): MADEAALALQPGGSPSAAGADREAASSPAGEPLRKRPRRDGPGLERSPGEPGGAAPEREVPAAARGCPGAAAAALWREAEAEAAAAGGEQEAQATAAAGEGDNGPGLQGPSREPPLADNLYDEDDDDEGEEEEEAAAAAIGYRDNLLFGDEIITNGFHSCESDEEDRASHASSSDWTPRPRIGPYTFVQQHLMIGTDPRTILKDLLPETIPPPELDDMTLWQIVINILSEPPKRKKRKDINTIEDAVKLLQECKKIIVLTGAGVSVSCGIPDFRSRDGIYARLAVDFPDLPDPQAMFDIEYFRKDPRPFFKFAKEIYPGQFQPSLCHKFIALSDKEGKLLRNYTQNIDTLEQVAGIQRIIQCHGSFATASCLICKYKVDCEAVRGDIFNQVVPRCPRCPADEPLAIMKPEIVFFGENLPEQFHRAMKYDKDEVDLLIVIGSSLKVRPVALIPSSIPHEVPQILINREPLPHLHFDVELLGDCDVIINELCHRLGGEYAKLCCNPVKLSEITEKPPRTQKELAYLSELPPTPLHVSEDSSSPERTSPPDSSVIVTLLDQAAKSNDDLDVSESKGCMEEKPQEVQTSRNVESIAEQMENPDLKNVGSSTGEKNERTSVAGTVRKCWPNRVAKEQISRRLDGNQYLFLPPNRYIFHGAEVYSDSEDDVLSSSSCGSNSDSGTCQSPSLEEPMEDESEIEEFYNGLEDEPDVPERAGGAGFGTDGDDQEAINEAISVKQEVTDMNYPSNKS

SK-MEL-28 cells = assay: Acetylation of sirtuin targets by Western blot, SK-MEL-28; type: cell-based, human; conditions: SK-MEL-28, 5 and 50 µM, 8 h
Description: Figure 5 Effect of eurochevalierine on the acetylation status of sirtuin targets. SK-MEL-28, U-373, and A-549 cells were treated with 5 and 50 µM eurochevalierine (EU) for 8 h. Acetylation of histone H4 (AcH4), histone H3 at lysine 56 (AcH3K56), and α-tubulin (Ac α-tubulin) was analyzed via Western blot. β-actin and histone H1 were used as loading controls for the analysis of total and acid extracts, respectively. SAHA (S, 1 µM) was used as a reference HDAC inhibitor. Blots are representative of three independent experiments.
Total proteins were extracted using the MPER® reagent (Thermo-scientific, Erembodegem-Aalst, Belgium) supplemented by 1× protease inhibitor cocktail (Complete EDTA-free, Roche, Prophac, Luxembourg, Luxembourg) according to manufacturer’s instructions. Histones were extracted as previously described. Western blots were carried out as previously reported.
Corresponding secondary antibodies were from Santa Cruz Biotechnology.

U-373 cells = assay: Sub-G1 fraction by PI flow cytometry, U-373; type: cell-based, human; conditions: U-373, 50 µM, 72 h
Description: Figure 2 Effect of eurochevalierine on cell cycle distribution. Cells were treated with 50 µM eurochevalierine for 72 h and then stained with propidium iodide (PI), and DNA content was measured by flow cytometry. (a) Cell cycle distribution profile in A-549 cells. Results of three independent experiments are represented on the same graph. (b) Quantification of the number of cells in sub-G1 fraction as a percentage of the total cell population. Results are expressed as mean ± SD of at least three independent experiments.
Cells were collected, fixed, and stained with the APO AF TUNEL detection kit (BD, Erembodegem, Belgium) allowing analysis of both apoptosis and cell cycle at the same time. The experiment was conducted accordingly to the procedure of the manufacturer. Data were obtained through flow cytometry with a Cell Lab Quanta apparatus (Analis, Suarlee, Belgium).

HDAC8 = target: T2, HDAC8 (Homo sapiens, UniProt Q9BY41); assay: Selective in vitro HDAC activity assay, recombinant HDAC8; type: biochemical; conditions: 100 µM
T2 sequence (Q9BY41 1-377): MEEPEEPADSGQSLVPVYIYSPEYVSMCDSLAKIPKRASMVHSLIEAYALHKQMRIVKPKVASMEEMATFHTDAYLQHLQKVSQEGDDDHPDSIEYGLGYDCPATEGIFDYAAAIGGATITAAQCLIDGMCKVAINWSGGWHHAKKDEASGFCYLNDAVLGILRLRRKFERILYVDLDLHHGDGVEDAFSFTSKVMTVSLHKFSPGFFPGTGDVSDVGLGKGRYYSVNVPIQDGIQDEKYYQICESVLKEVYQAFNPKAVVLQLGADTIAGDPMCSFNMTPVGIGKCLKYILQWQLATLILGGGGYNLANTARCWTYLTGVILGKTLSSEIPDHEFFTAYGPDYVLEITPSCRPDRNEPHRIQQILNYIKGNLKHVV
Description: (a) In vitro total HDAC activity was evaluated using K-562 nuclear extracts in the presence of various concentrations of eurochevalierine. (b) Selective in vitro HDAC activity assays were carried out using selected recombinant HDAC proteins in the presence of various concentrations of eurochevalierine. Results are reported as percent of DMSO vehicle control and expressed as the mean ± SD of three independent experiments. * and ** indicate p < 0.05 and p < 0.01 versus untreated cells, respectively.

C=C(C)[C@@H]1CC[C@@H](C)[C@@]2(O)[C@@H]1C=C(C)[C@@H](OC(C)=O)[C@@H]2OC(=O)[C@H](CC(=O)c1ccccc1NC)NC=O [Eurochevalierine, eurochevalierine]
IC50 (SIRT1): ~10 µM and 9.8 µM | acetylation of sirtuin targets (AcH4, AcH3K56, Ac α-tubulin) (SK-MEL-28 cells): robust and dose-dependent increase | sub-G1 fraction (U-373 cells): did not increase the sub-G1 fraction | effect on HDAC8 deacetylase activity (HDAC8): without effect
